Blank lines part the entries; values can stand above or below the molecule they belong to. *1 amine or outer side, *2 acyl side, *3 side chain or, on linkers, in order; H or OH if unused. Where a SMILES comes first, the peptide text is derived from it. Bridges are numbered along the chain shown (N, C = ends). Roman numbers before positions name the chains, in order. [ ]: non-standard residue; d: D form. Actinocin(9to1) = Cc1c2oc3c(C)ccc(C(=O)[*:1])c3nc-2c(C(=O)[*:2])c(N)c1=O; NMeV = CN[C@H](C(=O)O)C(C)C; Sar = CNCC(=O)O
What was measured:
Assay type in all cases: functional, cell-based
[1] = biological target: T1, ATP-dependent translocase ABCB1 (Homo sapiens, UniProt P08183); experiment: TP_TRANSPORTER: increase in Calcein-AM intracellular accumulation (Calcein-AM: 0.5 uM, Hoechst 33342: 50 uM) in MDR1-expressing NIH-3T3 cells; settings: mouse, nih3t3, 50 µM
T1 sequence (P08183 whole entry): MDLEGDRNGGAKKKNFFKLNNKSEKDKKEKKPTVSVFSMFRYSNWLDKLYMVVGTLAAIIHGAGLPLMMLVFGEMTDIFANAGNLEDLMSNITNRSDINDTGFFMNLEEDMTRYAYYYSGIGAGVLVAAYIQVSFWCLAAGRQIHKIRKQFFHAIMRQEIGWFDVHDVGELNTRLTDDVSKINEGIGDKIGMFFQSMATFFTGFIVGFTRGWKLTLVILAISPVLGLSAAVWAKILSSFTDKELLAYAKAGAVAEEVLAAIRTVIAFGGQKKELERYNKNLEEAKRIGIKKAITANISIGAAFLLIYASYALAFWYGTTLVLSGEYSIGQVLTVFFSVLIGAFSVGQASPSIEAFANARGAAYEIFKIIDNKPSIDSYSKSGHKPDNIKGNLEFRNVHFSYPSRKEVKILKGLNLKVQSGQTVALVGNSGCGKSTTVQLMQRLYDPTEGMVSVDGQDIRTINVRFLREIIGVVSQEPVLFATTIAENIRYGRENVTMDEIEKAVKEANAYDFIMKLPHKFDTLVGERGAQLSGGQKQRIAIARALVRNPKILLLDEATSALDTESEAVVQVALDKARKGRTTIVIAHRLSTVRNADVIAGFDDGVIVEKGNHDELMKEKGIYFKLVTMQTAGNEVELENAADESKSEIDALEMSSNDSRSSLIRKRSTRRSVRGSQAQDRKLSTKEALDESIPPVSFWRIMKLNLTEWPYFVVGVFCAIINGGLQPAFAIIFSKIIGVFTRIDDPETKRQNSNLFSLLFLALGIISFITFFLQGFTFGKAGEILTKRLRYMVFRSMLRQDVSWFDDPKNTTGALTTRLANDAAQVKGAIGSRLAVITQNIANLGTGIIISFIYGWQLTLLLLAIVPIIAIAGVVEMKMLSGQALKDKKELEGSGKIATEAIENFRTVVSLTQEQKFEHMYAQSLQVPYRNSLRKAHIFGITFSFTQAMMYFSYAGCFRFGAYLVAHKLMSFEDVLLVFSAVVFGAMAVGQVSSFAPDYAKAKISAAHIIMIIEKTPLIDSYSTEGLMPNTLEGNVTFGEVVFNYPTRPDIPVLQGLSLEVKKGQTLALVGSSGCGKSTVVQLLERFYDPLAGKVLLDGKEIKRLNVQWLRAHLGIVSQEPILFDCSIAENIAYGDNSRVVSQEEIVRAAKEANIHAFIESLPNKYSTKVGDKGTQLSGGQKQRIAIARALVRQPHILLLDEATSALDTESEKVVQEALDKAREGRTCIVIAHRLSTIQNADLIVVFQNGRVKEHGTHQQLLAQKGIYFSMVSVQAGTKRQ

[2] = biological target: T1, ATP-dependent translocase ABCB1; experiment: TP_TRANSPORTER: increase in Calcein-AM intracellular accumulation (Calcein-AM: 0.5 uM, m-Amsacrine: 5 uM) in MDR1-expressing NIH-3T3 cells; settings: mouse, nih3t3, 5 µM
[3] = biological target: T1, ATP-dependent translocase ABCB1; experiment: TP_TRANSPORTER: increase in Calcein-AM intracellular accumulation (Calcein-AM: 0.5 uM, Valinomycin: 10 uM) in MDR1-expressing NIH-3T3 cells; settings: mouse, nih3t3, 10 µM
[4] = biological target: T1, ATP-dependent translocase ABCB1; experiment: TP_TRANSPORTER: increase in Calcein-AM intracellular accumulation (Calcein-AM: 0.5 uM, Propranolol: 500 uM) in MDR1-expressing NIH-3T3 cells; settings: mouse, nih3t3, 500 µM
[5] = biological target: T1, ATP-dependent translocase ABCB1; experiment: TP_TRANSPORTER: increase in Calcein-AM intracellular accumulation (Calcein-AM: 0.5uM, Nifedipine:125uM) in MDR1-expressing NIH-3T3 cells; settings: mouse, nih3t3, 125 µM
[6] = biological target: T1, ATP-dependent translocase ABCB1; experiment: TP_TRANSPORTER: increase in Calcein-AM intracellular accumulation (Calcein-AM: 0.5 uM, Prednisone: 200 uM) in MDR1-expressing NIH-3T3 cells; settings: mouse, nih3t3, 200 µM
[7] = biological target: T1, ATP-dependent translocase ABCB1; experiment: TP_TRANSPORTER: increase in Calcein-AM intracellular accumulation (Calcein-AM: 0.5 uM, Actinomycin D: 40 uM) in MDR1-expressing NIH-3T3 cells; settings: mouse, nih3t3, 40 µM
[8] = biological target: T1, ATP-dependent translocase ABCB1; experiment: TP_TRANSPORTER: increase in Calcein-AM intracellular accumulation (Calcein-AM: 0.5 uM, Vinblastine: 70 uM) in MDR1-expressing NIH-3T3 cells; settings: mouse, nih3t3, 70 µM
[9] = biological target: T1, ATP-dependent translocase ABCB1; experiment: TP_TRANSPORTER: increase in Calcein-AM intracellular accumulation (Calcein-AM: 0.5 uM, Benzocaine: 20 uM) in MDR1-expressing NIH-3T3 cells; settings: mouse, nih3t3, 20 µM
[10] = biological target: T1, ATP-dependent translocase ABCB1; experiment: TP_TRANSPORTER: increase in Calcein-AM intracellular accumulation (Calcein-AM: 0.5 uM, Tetracaine: 320 uM) in MDR1-expressing NIH-3T3 cells; settings: mouse, nih3t3, 320 µM
[11] = biological target: T1, ATP-dependent translocase ABCB1; experiment: TP_TRANSPORTER: increase in Calcein-AM intracellular accumulation (Calcein-AM: 0.5 uM, Trimipramine: 20 uM) in MDR1-expressing NIH-3T3 cells; settings: mouse, nih3t3, 20 µM
[12] = biological target: T1, ATP-dependent translocase ABCB1; experiment: TP_TRANSPORTER: increase in Calcein-AM intracellular accumulation (Calcein-AM: 0.5 uM, Desipramine: 20 uM) in MDR1-expressing NIH-3T3 cells; settings: mouse, nih3t3, 20 µM
[13] = biological target: T1, ATP-dependent translocase ABCB1; experiment: TP_TRANSPORTER: increase in Calcein-AM intracellular accumulation (Calcein-AM: 0.5 uM, Mibefradil: 18 uM) in MDR1-expressing NIH-3T3 cells; settings: mouse, nih3t3, 18 µM
[14] = biological target: T1, ATP-dependent translocase ABCB1; experiment: TP_TRANSPORTER: increase in Calcein-AM intracellular accumulation (Calcein-AM: 0.5 uM, PSC-833: 8 uM) in MDR1-expressing NIH-3T3 cells; settings: mouse, nih3t3, 8 µM
[15] = biological target: T1, ATP-dependent translocase ABCB1; experiment: TP_TRANSPORTER: increase in Calcein-AM intracellular accumulation (Calcein-AM: 0.5 uM, Reserpine: 40 uM) in MDR1-expressing NIH-3T3 cells; settings: mouse, nih3t3, 40 µM

SMILES: CCOc1ccc(-c2nc3cc(-c4nc5cc(N6CCN(C)CC6)ccc5[nH]4)ccc3[nH]2)cc1
Activity [1]: is not an inhibitor [-]

Activity [2]: inhibitor [+]
SMILES: COc1cc(NS(C)(=O)=O)ccc1Nc1c2ccccc2nc2ccccc12 [AMSACRINE]

SMILES: CC(C)[C@@H]1NC(=O)[C@H](C)OC(=O)[C@@H](C(C)C)NC(=O)[C@@H](C(C)C)OC(=O)[C@H](C(C)C)NC(=O)[C@H](C)OC(=O)[C@@H](C(C)C)NC(=O)[C@@H](C(C)C)OC(=O)[C@H](C(C)C)NC(=O)[C@H](C)OC(=O)[C@@H](C(C)C)NC(=O)[C@@H](C(C)C)OC1=O [VALINOMYCIN]
Activity [3]: inhibitor [+]

Activity [4]: inhibitor [+]
SMILES: CC(C)NCC(O)COc1cccc2ccccc12 (stereo not given) [PROPRANOLOL]

SMILES: COC(=O)C1=C(C)NC(C)=C(C(=O)OC)C1c1ccccc1[N+](=O)[O-] [NIFEDIPINE]
Activity [5]: inhibitor [+]

Activity [6]: inhibitor [+]
SMILES: C[C@]12C=CC(=O)C=C1CC[C@@H]1[C@@H]2C(=O)C[C@@]2(C)[C@H]1CC[C@]2(O)C(=O)CO [PREDNISONE]

Activity [7]: inhibitor [+]
SMILES: Cc1c2oc3c(C)ccc(C(=O)N[C@@H]4C(=O)N[C@H](C(C)C)C(=O)N5CCC[C@H]5C(=O)N(C)CC(=O)N(C)[C@@H](C(C)C)C(=O)O[C@@H]4C)c3nc-2c(C(=O)N[C@@H]2C(=O)N[C@H](C(C)C)C(=O)N3CCC[C@H]3C(=O)N(C)CC(=O)N(C)[C@@H](C(C)C)C(=O)O[C@@H]2C)c(N)c1=O [DACTINOMYCIN] (I: T[dV]P[Sar][NMeV] / II: T[dV]P[Sar][NMeV]; ester I:1-I:C, II:1-II:C; linker I:N-II:N via Actinocin(9to1))

Activity [8]: inhibitor [+]
SMILES: CC[C@]1(O)C[C@@H]2CN(CCc3c([nH]c4ccccc34)[C@@](C(=O)OC)(c3cc4c(cc3OC)N(C)[C@H]3[C@@](O)(C(=O)OC)[C@H](OC(C)=O)[C@]5(CC)C=CCN6CC[C@]43[C@@H]65)C2)C1 [VINBLASTINE]

Activity [9]: inhibitor [+]
SMILES: CCOC(=O)c1ccc(N)cc1 [BENZOCAINE]

Activity [10]: inhibitor [+]
SMILES: CCCCNc1ccc(C(=O)OCCN(C)C)cc1 [TETRACAINE]

Activity [11]: inhibitor [+]
SMILES: CC(CN(C)C)CN1c2ccccc2CCc2ccccc21 (stereo not given) [TRIMIPRAMINE]

Activity [12]: inhibitor [+]
SMILES: CNCCCN1c2ccccc2CCc2ccccc21 [DESIPRAMINE]

Activity [13]: inhibitor [+]
SMILES: COCC(=O)O[C@]1(CCN(C)CCCc2nc3ccccc3[nH]2)CCc2cc(F)ccc2[C@@H]1C(C)C [MIBEFRADIL]

Activity [14]: inhibitor [+]
SMILES: C/C=C/C[C@@H](C)C(=O)[C@H]1C(=O)N[C@@H](C(C)C)C(=O)N(C)CC(=O)N(C)[C@@H](CC(C)C)C(=O)N[C@@H](C(C)C)C(=O)N(C)[C@@H](CC(C)C)C(=O)N[C@@H](C)C(=O)N[C@H](C)C(=O)N(C)[C@@H](CC(C)C)C(=O)N(C)[C@@H](CC(C)C)C(=O)N(C)[C@@H](C(C)C)C(=O)N1C [VALSPODAR]

Activity [15]: inhibitor [+]
SMILES: COC(=O)[C@H]1[C@H]2C[C@@H]3c4[nH]c5cc(OC)ccc5c4CCN3C[C@H]2C[C@@H](OC(=O)c2cc(OC)c(OC)c(OC)c2)[C@@H]1OC [RESERPINE]

Source: ChEMBL document CHEMBL2074246, “Distinct groups of multidrug resistance modulating agents are distinguished by competition of P-glycoprotein-specific antibodies” (Biochem Biophys Res Commun, 2004)
